Literature values in patent publication US20050187170A1, “Enhancing the efficiency of RNA polymerase inhibitors by using inosine monophosphate dehydrogenase inhibitors” (BIOCRYST PHARMACEUTICALS, INC., priority 2003, published 2005).

How the values were obtained:
human IMPDH type I = human IMPDH type I (Homo sapiens, UniProt P20839); settings: read-out: Ki, IMPDH type I; type I expressed in normal cells; Carr, et al.
HIV = settings: human peripheral blood CD4+ lymphocytes and macrophages, established human cell lines

Chain of human IMPDH type I (P20839 whole entry): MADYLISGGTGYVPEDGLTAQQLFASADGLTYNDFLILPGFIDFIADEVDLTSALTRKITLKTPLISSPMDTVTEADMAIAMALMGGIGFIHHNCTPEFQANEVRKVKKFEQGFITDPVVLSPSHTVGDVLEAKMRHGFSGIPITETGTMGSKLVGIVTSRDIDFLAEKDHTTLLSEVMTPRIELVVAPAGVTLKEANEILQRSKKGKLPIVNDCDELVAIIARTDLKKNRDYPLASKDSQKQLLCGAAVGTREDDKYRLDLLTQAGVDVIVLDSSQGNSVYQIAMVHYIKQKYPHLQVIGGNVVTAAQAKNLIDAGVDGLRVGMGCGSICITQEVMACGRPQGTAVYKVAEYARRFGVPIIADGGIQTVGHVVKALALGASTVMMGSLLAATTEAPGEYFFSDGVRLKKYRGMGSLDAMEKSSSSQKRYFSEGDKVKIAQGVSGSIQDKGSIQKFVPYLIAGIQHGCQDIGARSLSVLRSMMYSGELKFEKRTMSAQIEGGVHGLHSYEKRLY

For `COc1c(C)c2c(c(O)c1C/C=C(\C)CCC(=O)O)C(=O)OC2` [MPA, Mycophenolic acid], the Ki (human IMPDH type I) is listed as 33 to 37 nM and the “anti-HIV activity in vitro” value (HIV) is listed as “strong anti-HIV activity”.
